This note sets out measurements from patent US20240043439A1, “COMPOUNDS AS C5AR INHIBITORS” (Kira Pharmaceuticals (Suzhou) Ltd., priority 2020, published 2024).

Experiment [1] deals with T1, C5aR (Homo sapiens (Human), UniProt P21730). Put plainly: Inhibition of C5a-C5aR binding determined by cell migration assay (U937/C5aR cells). Type of experiment: cell-based. To be noted: U937/C5aR cell migration towards human C5a, 180 min. As for the experimental part:
Migration assay was performed by using polycarbonate membrane with 3.0 µm pore (Corning). U937/C5aR cells were collected and washed twice by PBS; cells were suspended in Hank's balanced salt solution (HBSS)+1% FBS buffer at the density of 6×10^6 cells/ml. Cells were premixed with compound and added to insert well, ligand human C5a and compound were added to bottom well in order, gently mix, incubate for 30 min at 37° C., […]. Put insert plate into bottom well, migrate for 180 min at 37° C., […]. Gently remove the insert well, add 50 μl CellTiter-Glo (Promega), gently shaking for 5 min at room temperature, transfer 150 μl mixture to black plate and read luminescence intensity by
microplate reader (BioTek).

Experiment [2] has as its target human C5a receptor (C5aR) (Homo sapiens (Human), UniProt P21730). Put plainly: Inhibition of C5a-C5aR binding (biotinylated human C5a, U937/C5aR cells, FACS). The gist of the method: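 Binding read by flow cytometry as FITC-streptavidin signal (30 min on ice) on washed cells after a 120 min on-ice incubation of compound with biotinylated human C5a (30 nM working solution). Cells used were C5aR-transfected U937, suspended at 3×10^6 cells/ml in PBS containing 0.1% BSA.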

In experiment [3] the target is T1, C5aR. Put plainly: Calcium mobilization (U937/C5aR or HEK293/C5aR cells, FLIPR). Particulars: agonist human C5a at EC80, FLIPR. Type of experiment: cell-based. The procedure, abridged: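 FLIPR calcium-flux read-out using Fluo-4 Direct-loaded C5aR-expressing U937 or HEK293 cells stimulated with human C5a at its EC80. Compound was applied for 60 min before dye loading (50 min at 37 °C plus 10 min at room temperature) and agonist addition.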
A general note: A change in cytosolic calcium serves as a functional read-out for many receptors and channels.

pIC50: −log10 of the molar value. Bounds are passed on as bounds.

T1 sequence (P21730 whole entry): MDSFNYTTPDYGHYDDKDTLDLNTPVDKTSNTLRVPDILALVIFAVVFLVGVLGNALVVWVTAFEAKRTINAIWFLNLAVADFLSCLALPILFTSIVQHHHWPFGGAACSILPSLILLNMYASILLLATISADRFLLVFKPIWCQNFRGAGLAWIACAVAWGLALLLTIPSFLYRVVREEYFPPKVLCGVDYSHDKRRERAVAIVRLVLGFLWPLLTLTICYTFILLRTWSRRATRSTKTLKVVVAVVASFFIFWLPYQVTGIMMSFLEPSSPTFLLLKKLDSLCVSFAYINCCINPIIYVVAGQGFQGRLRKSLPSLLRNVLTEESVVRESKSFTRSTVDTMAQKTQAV
Chain of human C5a receptor (C5aR) (P21730 whole entry): as above

In general, pIC50 refers to the negative decadic logarithm of the IC50, by convention in mol/L. With `Cc1ccc(NC(=O)[C@H]2OCCN(C(=O)c3c(C)cccc3F)[C@H]2c2ccc(NC3CCCC3)cc2)cc1C(F)(F)F` (relative stereo) [Compound 187, cis-3-(4-(cyclopentylamino)phenyl)-4-(2-fluoro-6-methylbenzoyl)-N-(4-methyl-3-(trifluoromethyl)phenyl)morpholine-2-carboxamide], the pIC50 at C5aR [1] was 6.30 to 7.30; in experiment [2] it was 6.30 to 7.30; at C5aR [3], 5.00 to 5.70.
As to `Cc1cccc(F)c1C(=O)N1C(c2ccc(NC3CCCC3)cc2)C(C(=O)Nc2cnc3cnn(C)c3c2)C[C@@H]2COC[C@@H]21` (relative stereo) [Compound 189, cis-2-(4-(cyclopentylamino)phenyl)-1-(2-fluoro-6-methylbenzoyl)-N-(1-methyl-1H-pyrazolo[4,3-b]pyridin-6-yl)octahydrofuro[3,4-b]pyridine-3-carboxamide], the pIC50 was 6.30 to 7.30 on C5aR [1], 6.30 to 7.30 in experiment [2] and 5.00 to 5.70 at C5aR [3].
For `Cc1ccc(NC(=O)[C@H]2CCCN(c3ncnc4ccccc34)[C@H]2c2ccc(NC3CCCC3)cc2)cc1C(F)(F)F` [Compound 5, (2R,3S)-2-(4-(cyclopentylamino)phenyl)-N-(4-methyl-3-(trifluoromethyl)phenyl)-1-(quinazolin-4-yl)piperidine-3-carboxamide], the negative-log IC50 (pIC50) on C5aR [1] was 6.30 to 7.30; in experiment [2], 6.30 to 7.30; on C5aR [3], 5.00 to 5.70.
For `Cc1ccc(NC(=O)[C@H]2CCC3CCc4ccccc4C(=O)N3[C@H]2c2ccc(NC3CCCC3)cc2)cc1C(F)(F)F` (stereo partly drawn) [Compound 44, (3S,4R)-4-(4-(cyclopentylamino)phenyl)-N-(4-methyl-3-(trifluoromethyl)phenyl)-6-oxo-1,2,3,4,6,11,12,12a-octahydrobenzo[e]pyrido[1,2-a]azepine-3-carboxamide], the negative-log IC50 (pIC50) was greater than 7.30 on C5aR [1], 6.30 to 7.30 in experiment [2] and 5.70 to 6.30 at C5aR [3].
The corresponding values for `Cc1cccc(F)c1C(=O)N1[C@@H]2CCC[C@@H]2C[C@H](C(=O)Nc2ccc(N(C)C)cc2)[C@@H]1c1ccc(NC2CCCC2)cc1` [Compound 51, (2R,3S,4aR,7aR)-2-(4-(cyclopentylamino)phenyl)-N-(4-(dimethylamino)phenyl)-1-(2-fluoro-6-methylbenzoyl)octahydro-1H-cyclopenta[b]pyridine-3-carboxamide] are greater than 7.30, greater than 7.30 and 5.70 to 6.30.
The like results for `Cc1cccc(F)c1C(=O)N1[C@@H]2CCC[C@@H]2C[C@H](C(=O)Nc2cnn(C)c2)[C@@H]1c1ccc(NC2CCCC2)cc1` [Compound 54, (2R,3S,4aR,7aR)-2-(4-(cyclopentylamino)phenyl)-1-(2-fluoro-6-methylbenzoyl)-N-(1-methyl-1H-pyrazol-4-yl)octahydro-1H-cyclopenta[b]pyridine-3-carboxamide] were, in that order, 6.30 to 7.30, 6.30 to 7.30 and 5.00 to 5.70.
The like results for `Cc1cccc(F)c1C(=O)N1[C@@H]2CCC[C@@H]2C[C@H](C(=O)Nc2ccc(N(C)C)cc2)[C@@H]1c1ccc(NC2CCOCC2)cc1` [Compound 94, (2R,3S,4aR,7aR)-N-(4-(dimethylamino)phenyl)-1-(2-fluoro-6-methylbenzoyl)-2-(4-((tetrahydro-2H-pyran-4-yl)amino)phenyl)octahydro-1H-cyclopenta[b]pyridine-3-carboxamide] were, in that order, 6.30 to 7.30, greater than 7.30 and 5.00 to 5.70.
`Cc1cccc(F)c1C(=O)N1[C@@H]2CCC[C@@H]2C[C@H](C(=O)Nc2ccc3[nH]ncc3c2)[C@@H]1c1ccc(NC2CCOCC2)cc1` [Compound 96, (2R,3S,4aR,7aR)-1-(2-fluoro-6-methylbenzoyl)-N-(1H-indazol-5-yl)-2-(4-((tetrahydro-2H-pyran-4-yl)amino)phenyl)octahydro-1H-cyclopenta[b]pyridine-3-carboxamide]: the figures for the pIC50 (at C5aR [1]; in experiment [2]; on C5aR [3]) were 6.30 to 7.30, greater than 7.30 and 5.00 to 5.70, respectively.
With `Cc1cccc(F)c1C(=O)N1[C@@H]2CCC[C@@H]2C[C@H](C(=O)Nc2ccc3c(ccn3C)c2)[C@@H]1c1ccc(NC2CCOCC2)cc1` [Compound 98, (2R,3S,4aR,7aR)-1-(2-fluoro-6-methylbenzoyl)-N-(1-methyl-1H-indol-5-yl)-2-(4-((tetrahydro-2H-pyran-4-yl)amino)phenyl)octahydro-1H-cyclopenta[b]pyridine-3-carboxamide], the negative-log IC50 (pIC50) is greater than 7.30 at C5aR [1], greater than 7.30 in experiment [2] and 5.70 to 6.30 on C5aR [3].
Consider `Cc1ccc(NC(=O)[C@H]2C[C@H]3COC[C@H]3N(C(=O)c3c(C)cccc3F)[C@H]2c2ccc(NC3CCCC3)cc2)cc1C(F)(F)F` [Compound 119, (2R,3S,4aR,7aS)-2-(4-(cyclopentylamino)phenyl)-1-(2-fluoro-6-methylbenzoyl)-N-(4-methyl-3-(trifluoromethyl)phenyl)octahydrofuro[3,4-b]pyridine-3-carboxamide], for which the negative-log IC50 (pIC50) on C5aR [1] is greater than 7.30; in experiment [2], greater than 7.30; on C5aR [3], 6.30 to 7.30.
Turning to `Cc1cccc(F)c1C(=O)N1[C@@H]2COC[C@@H]2C[C@H](C(=O)Nc2ccc(N(C)C)cc2)[C@@H]1c1ccc(NC2CCCC2)cc1` [Compound 124, (2R,3S,4aR,7aS)-2-(4-(cyclopentylamino)phenyl)-N-(4-(dimethylamino)phenyl)-1-(2-fluoro-6-methylbenzoyl)octahydrofuro[3,4-b]pyridine-3-carboxamide], the negative-log IC50 (pIC50) on C5aR [1] was 6.30 to 7.30; in experiment [2], 6.30 to 7.30; at C5aR [3] it was 5.00 to 5.70.
With `Cc1cccc(F)c1C(=O)N1[C@@H]2COC[C@@H]2C[C@H](C(=O)Nc2ccc3c(cnn3C)c2)[C@@H]1c1ccc(NC2CCCC2)cc1` [Compound 126, (2R,3S,4aR,7aS)-2-(4-(cyclopentylamino)phenyl)-1-(2-fluoro-6-methylbenzoyl)-N-(1-methyl-1H-indazol-5-yl)octahydrofuro[3,4-b]pyridine-3-carboxamide], the negative logarithm of the IC50 (pIC50) on C5aR [1] was greater than 7.30; in experiment [2], greater than 7.30; on C5aR [3], 5.00 to 5.70.
Consider `Cc1cccc(F)c1C(=O)N1[C@@H]2COC[C@@H]2C[C@H](C(=O)Nc2ccc3[nH]ncc3c2)[C@@H]1c1ccc(NC2CCCC2)cc1` [Compound 138, (2R,3S,4aR,7aS)-2-(4-(cyclopentylamino)phenyl)-1-(2-fluoro-6-methylbenzoyl)-N-(1H-indazol-5-yl)octahydrofuro[3,4-b]pyridine-3-carboxamide], for which the negative logarithm of the IC50 (pIC50) at C5aR [1] was 5.70 to 6.30; in experiment [2], 6.30 to 7.30; on C5aR [3], 5.00 to 5.70.
Regarding `Cc1cccc(F)c1C(=O)N1[C@@H]2COC[C@@H]2C[C@H](C(=O)Nc2ccc3c(ccn3C)c2)[C@@H]1c1ccc(NC2CCCC2)cc1` [Compound 139, (2R,3S,4aR,7aS)-2-(4-(cyclopentylamino)phenyl)-1-(2-fluoro-6-methylbenzoyl)-N-(1-methyl-1H-indol-5-yl)octahydrofuro[3,4-b]pyridine-3-carboxamide], the pIC50 is 6.30 to 7.30 at C5aR [1], greater than 7.30 in experiment [2] and 5.00 to 5.70 at C5aR [3].
The like results for `Cc1ccc(NC(=O)[C@H]2CCCN(c3ncnc4cnccc34)[C@H]2c2ccc(NC3CCCC3)cc2)cc1C(F)(F)F` [Compound 162, (2R,3S)-2-(4-(cyclopentylamino)phenyl)-N-(4-methyl-3-(trifluoromethyl)phenyl)-1-(pyrido[3,4-d]pyrimidin-4-yl)piperidine-3-carboxamide] were, in that order, 5.70 to 6.30, 6.30 to 7.30 and 5.00 to 5.70.
